From a melting point compilation (Tetko et al.; mined from patent text by program, amines drawn as free bases though some values may be those of a salt)

SMILES | melting point [°C]
Cc1nc(N2CCN(CC3CC3(F)F)C2=O)sc1C(=O)O (configuration not stated) | 210 to 215
CCCCn1c(=O)n(CCC)c(=O)c2c3n(nc21)CCCN3 | 147 to 150
C=C(C)OC(=O)N1c2ccc(C)cc2NC(=O)C1(C)C | 185
CCn1c(=O)c2c(nc(/C=C/c3cccc(C(C)=O)c3)n2C)n(CC)c1=O | 221 to 222
CC(Cn1ncnn1)n1nnc2cc3c(=O)n(CC4CC4)nnc3cc2c1=O (configuration not stated) | 134 to 136
Cc1c(NC(=O)c2ccc(OCCC(C)C)cc2F)ccc2cc(CN3CCCC3)cnc12 | 131
OC(c1ccccc1)(c1ccccc1)C1CCN(Cc2ccccc2)CC1 | 89.5 to 90.5
CC(C)(C)c1cc(CC(Cc2cc(C(C)(C)C)c(O)c(C(C)(C)C)c2)[N+](=O)[O-])cc(C(C)(C)C)c1O | 161 to 165
CC(=O)N1CCOc2c(C(=O)O)cc(Cl)cc21 | 76 to 77
COC(=O)c1ccc(C)c(-n2c(C)cc(OCc3ccc(F)cc3CNC(=O)Nc3cc(C(C)(C)C)nn3-c3ccc(O)cc3)c(Cl)c2=O)c1 | 188 to 190
CCCCCC1C=CC(c2ccc(Br)cc2)=CC1 (configuration not stated) | 74
COc1ccc(NC(=O)OC(C)(C)C)c(C)c1 | 80 to 82
N#CC(C#N)=C1Sc2nc3ccc([N+](=O)[O-])cc3nc2S1 | 220 to 222
CC(=O)OC1C(CO)OC(NC(=O)N(CCCl)N=O)C(OC(C)=O)C1OC(C)=O (configuration not stated) | 143 to 144
Cc1cc2ncnn2nc1OCC(C)(C)CCS(N)(=O)=O | 214 to 215
CCOc1cc2c(cc1OC)Nc1[nH]cnc(=O)c1C2 | 335 to 336
CC(=CC(=O)O)C(=O)NN | 281 to 284
OC1C2=C(CCN1CCCCc1c[nH]c3ccccc13)c1ccccc1C2 (configuration not stated) | 205 to 208
C[C@@H]1CN(C(=O)[C@@](C)(O)C(F)(F)F)[C@@H](C)CN1C(=O)c1ccc(F)cc1 | 177 to 178
COc1cc(OC)c2c(=O)[nH]c(-c3ccc(N4CCN(C)CC4)cc3)nc2c1 | 252 to 254
CN(c1cc(OCCO)cc2cc(C3=NCC(CN4CCSCC4)S3)[nH]c12)S(=O)(=O)c1ccccn1 (configuration not stated) | 160 to 162
Fc1ccc(CNc2nc(OCC(F)(F)F)nc(-c3ccccc3)n2)cc1 | 170 to 172
Cc1c(C(=O)Nc2ccc(OCC(C)(C)C)c(C#N)c2)cnn1C(C)(C)C | 143 to 144
COc1cccc(Cc2cc(-c3ccccc3)c(-c3ccccc3)s2)c1 | 100 to 102

SMILES | melting point [°C]
Cc1ccc(CNC(=O)c2cc3c(ccc4cnn(C[C@H](C)N)c43)o2)o1 | 118 to 120
O=C(NC1CCc2cc3c(cc2C1)OCC3)C(F)(F)F (configuration not stated) | 131
COc1ncnc(-c2cc([N+](=O)[O-])c(F)cc2F)c1Cl | 84 to 88
COc1cc(N2CCC(N3CCN(C)CC3)CC2)ccc1Nc1ncc2ccc(-c3ccc(Cl)nc3)n2n1 | 186 to 188
O=C(O)c1cn(C2CC2)c2c(OC(F)F)c(F)c(F)cc2c1=O | 202 to 207
CC1(C)CCC(C)(C)c2cc(-c3cc(-c4ccc(C(=O)O)cc4)ccc3OCc3ccccc3)ccc21 | 241 to 244
CCCn1cncc1CSc1ccc(NC(=O)C(F)(F)F)cc1 | 82 to 84
O=C(O)COc1cc2c(c(Cl)c1Cl)C(=O)CCC2 | 250 to 252
CCOC(=O)Cn1ccn2nc(-c3ccccc3)cc12 | 85 to 87
CC(=O)OCC(=O)C12OCOC1CC1C3CCC4=CC(=O)CCC4(C)C3(Cl)C(O)CC12C (configuration not stated) | 231
CSCC(=O)[C@H](Cc1ccc(O)cc1)NC(=O)[C@H](CC(C)C)NC(=O)OCc1ccccc1 | 108 to 111
Cn1cncc1C(O)(c1ccc(C(=O)O)cc1)c1ccc2c(c1)c(-c1cccc(Cl)c1)cc(=O)n2C (configuration not stated) | > 260
Cn1ccc(-c2cc(OC(F)F)n(-c3ccc(NC(=O)c4ccncc4F)cc3)n2)c1 | 135 to 136
CC(C#CC1CC(Oc2ccc(C(F)(F)F)cc2)C1)N(O)C(N)=O (single isomer, unassigned; (+)) | 113 to 114
Nc1cc(Cl)c(N2CCC(N3CCOCC3)CC2)c(Cl)c1 | 144 to 146
Cn1ncnc1COc1nn2c(-c3ccc(F)cc3)nncc2c1C(C)(C)C | 197
CC1(C)OC(=O)C(=Cc2ccc(I)s2)C1=O | 182 to 184
CC(C)(C)OC(=O)Nc1ccc(F)nc1 | 112 to 113
CCC(CC)n1nnc2cc(C)c(C)c(N)c21 | 114 to 117
CC(=O)SCC(C(=O)NCCc1nnn[nH]1)C(F)(F)F (configuration not stated) | 157 to 160
CSc1c(C(Cc2ccccc2)C(=O)O)ccc2c3ccccc3n(Cc3ccccc3)c12 (configuration not stated) | 154 to 156
CC(=O)N1CCCc2c(c3ccc(-n4ccc(-c5ccc(C(F)(F)F)nc5)cc4=O)cc3n2C)C1 | 156 to 162
CCCCOc1cc(/C=C(\OCC)C(=O)O)ccc1OCCc1ccc(N(C)S(C)(=O)=O)cc1 | 112
Fc1ccc(-c2nc(-c3ccc[nH]3)[nH]c2-c2ccc(F)cc2)cc1 | 276

SMILES | melting point [°C]
O=C(O)c1ccc(-c2ccc3cc(OCc4ccccc4)c(C45CC6CC(CC(C6)C4)C5)cc3c2)cc1 | 305 to 310
CCc1cccc(CC)c1NC(=O)CCSc1cc(C(C)(C)C)c(O)c(C(C)(C)C)c1 | 150 to 152
CCCCCCCCCCCCCCCCCCC(CC1(C)OCCO1)C(=O)OCC (configuration not stated) | 33 to 34
CC(C)(C)c1ccc(CN2CCNC2=O)cc1 | 122 to 127
CCOc1nsc(NC(=O)NC)c1C(N)=O | 240 to 241
CSc1ccc2nc(NN)sc2c1 | 173 to 176
Oc1ccc(F)cc1C=C(Cl)Cl | 55 to 57
Cn1ccnc1CC(O)C(F)(F)F (configuration not stated) | 146 to 148
CN1c2cccc3c2N(CCC3)S1(=O)=O | 103 to 104
CC(O)CC1NCc2ccsc2-n2cccc21 (configuration not stated) | 130
O=C1OC(O)c2cccc(O)c21 (configuration not stated) | 124 to 126
Clc1nc(N2CCOCC2)c2ncnc(Cl)c2n1 | 179 to 181
CN(C)c1cc(CC(C#N)CNc2ccccc2)cc(N(C)C)c1N(C)C (configuration not stated) | 179 to 181
CC(C)c1nn2ccccc2c1Br | 51 to 52
CCCN(CCC)CCc1ccc(OC)c2[nH]c(=O)[nH]c12 | 35
CC1SC(=O)NN=C1c1ccc2c(c1)C(C)(C)C(=O)N2C (configuration not stated) | 125
Cc1nc(-c2ccc(C(F)(F)F)cc2)sc1C(=O)NCc1ccc(OC(C)(C)C(=O)O)cc1 | 130 to 131
CN(Cc1cccc2ccccc12)c1ncnc2c(N3CCOCC3)nc(N3CCC(N(C)C)CC3)nc12 | 146 to 148
CC(C)CCN1C(=O)C(NC(=O)Oc2ccccc2)C(=O)N(c2ccccc2)c2ccccc21 (configuration not stated) | 70
NNC(=O)c1cnc2n(c1=O)CCC2 | 180 to 181
c1ccc(-c2nc(SCCCSCCCSc3nc(-c4ccccc4)c(-c4ccccc4)[nH]3)[nH]c2-c2ccccc2)cc1 | 208 to 209
CC(=O)OC1CSC(Oc2cnc(Cl)c(Cl)c2)C(OC(C)=O)C1OC(C)=O (configuration not stated) | 128
CC12CC(=O)C3C(CCC4CC(O)CCC43C)C1CCC2C(=O)COCCN1CCOCC1 (configuration not stated) | 112 to 113

The next lines start with the values.

melting point [°C] | SMILES
78 to 79 | COC(=O)c1c(C)sc2cc(CCl)ccc12
116 to 118 | CC(=NO)c1ccccc1Nc1c(Cl)ccc(C)c1Cl
223 to 226 | Oc1nc(S)n(-c2ccccc2)n1
95 | COc1cc(C(=CN(C)C)C(C)=O)ccc1OCC(O)CN1CCN(c2ccccc2C)CC1 (configuration not stated)
103 to 105 | CN(N=C(Cl)c1c(F)cccc1Cl)S(=O)(=O)c1ccccc1
51 to 52 | O=C(NCCc1ccc(F)cc1)OCc1ccccc1
152 to 154 | CC(=Cc1ccccc1)COc1cc(C)c(NC=O)c(C)c1C
105 to 106 | CN(C(=O)OC(C)(C)C)c1cc(Oc2ccc(Oc3ccccc3)cc2)ccc1N
155 | COc1ccc(-c2nccn2N=Cc2ccccc2)cc1
162 to 163 | CCCCCCCCCCCCCCCCn1c(-c2ccc(Cl)c(N)c2)nc2ccccc21
117 to 119 | COC(=O)/C=C/c1ccc(-c2ccc(C(C)C)cc2)s1
121 | Cc1ccc(-c2cc(C(F)(F)F)n3ncc(C#N)c3n2)cc1
92 to 94 | CCCNc1cn(-c2cccnc2)nc1Cl
94 to 96 | CC(C)(C)c1cc(Cc2nc3ccccc3o2)cc(C(C)(C)C)c1O
299 to 301 | O=c1cc(CBr)c2c(Cl)cc(Cl)cc2[nH]1
102 | CCC(Oc1ccccc1Br)C(=O)O (configuration not stated)

melting point [°C] | SMILES
228 to 230 | COC(=O)c1nc2ccc(Cl)cc2c(O)c1C(=O)OC
127 to 129 | CCCCCC(=O)N1c2ccccc2NC(=O)c2cscc21
279 to 281 | CCc1nc2c(N)nc3ccccc3c2n1CC(C)(C)C(N)=O
80.5 to 86.5 | NC(Cc1ccc(OCc2ccccc2)cc1)C(=O)Nc1c(F)cc(F)cc1F (configuration not stated)
183 to 193 | O=C(Nc1cccc2cc(Br)cnc12)c1ccc(O)c(O)c1O
218 to 220 | O=c1cc(N2CCOCC2)oc2ccc(-c3ccccc3)cc12
189 to 191 | COc1ccc2c(-c3ccc(F)cc3F)noc2c1Cl
287 to 290 | O=C1c2cc(F)cc(F)c2-n2c1nc1ccccc1c2=O
260 to 262 | COc1ccc(OC)c(Nc2ncc(C(=O)O)c(=O)[nH]2)c1
151 to 155 | COc1ccc2[nH]cc(S(=O)(=O)c3ccccc3)c2c1
61 to 64 | COC(=O)C(C)Oc1cc(Cl)ccc1COc1ccc(-c2nn(C)c(OC(F)F)c2Cl)cc1 (configuration not stated)
114 to 116 | C=CCNC(=O)c1cnc2c(OC)cccc2c1Cl
131 | CCOC(=O)c1c(O)c2cc(F)ccc2n(C)c1=O
147 | CNC(=O)c1cccc(NC(=O)C2(c3ccccc3)CCCC2)c1
42 to 44 | CN(C)c1ccc(/C=C/c2c(F)cccc2Cl)cc1
